Experimental data published in patent publication US8546451B2 (priority 2005, dated 2013).
Marks after values point to notes of the source that are not given here.

What was measured:
[1] = tested on: testosterone, prostate specific antigen (PSA), prostate volume and weight; assay: 39-week oral pharmacology and toxicology study in male cynomolgus monkey (13-week interim); conditions: for reduction of prostate volume: six weeks; for reduction of mean prostate weights: thirteen weeks
[2] = target: progesterone receptor (PR) (Rattus norvegicus (Rat), UniProt Q63449); assay: Cross-reactivity transcriptional activation assay, PR; type: cell-based; conditions: agonist and antagonist modes
Chain of progesterone receptor (PR) (Q63449 whole entry, canonical isoform): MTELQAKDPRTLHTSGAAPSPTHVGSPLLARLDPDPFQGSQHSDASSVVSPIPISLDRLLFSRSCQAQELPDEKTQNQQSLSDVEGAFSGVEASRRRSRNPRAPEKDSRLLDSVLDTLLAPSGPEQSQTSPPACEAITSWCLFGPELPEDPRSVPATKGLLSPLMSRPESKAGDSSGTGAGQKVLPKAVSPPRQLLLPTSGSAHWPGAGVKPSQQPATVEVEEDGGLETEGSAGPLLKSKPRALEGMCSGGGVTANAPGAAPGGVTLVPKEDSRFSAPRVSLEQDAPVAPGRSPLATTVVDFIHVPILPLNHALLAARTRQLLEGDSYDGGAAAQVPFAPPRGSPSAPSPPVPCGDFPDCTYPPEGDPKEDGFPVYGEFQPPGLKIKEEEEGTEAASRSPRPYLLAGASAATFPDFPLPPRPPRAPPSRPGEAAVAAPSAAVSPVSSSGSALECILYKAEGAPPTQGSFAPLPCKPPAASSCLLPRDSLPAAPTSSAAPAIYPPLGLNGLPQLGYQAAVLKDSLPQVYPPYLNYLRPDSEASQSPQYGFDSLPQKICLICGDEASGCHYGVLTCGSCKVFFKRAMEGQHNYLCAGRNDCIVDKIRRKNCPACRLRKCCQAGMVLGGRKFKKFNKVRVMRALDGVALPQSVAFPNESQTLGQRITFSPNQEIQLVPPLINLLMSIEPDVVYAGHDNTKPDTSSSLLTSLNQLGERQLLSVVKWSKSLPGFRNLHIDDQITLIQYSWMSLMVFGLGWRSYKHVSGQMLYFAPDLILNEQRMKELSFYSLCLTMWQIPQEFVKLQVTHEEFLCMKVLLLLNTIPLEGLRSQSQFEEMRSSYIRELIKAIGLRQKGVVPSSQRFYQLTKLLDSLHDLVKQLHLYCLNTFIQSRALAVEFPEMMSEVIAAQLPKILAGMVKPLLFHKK
From the text: (§1) Compound IV was screened for cross-reactivity against rat isoforms of glucocorticoid receptor (GR), mineralocorticoids receptor (MR), progesterone receptor (PR), androgen receptor (AR) and human isoforms of farnesoid X receptor (FXR), liver X receptor (LXR), peroxisome proliferator-activated receptors (PPAR-α and PPAR-γ), and retinoid X receptor (RXR-α) in both agonist and antagonist modes in transcriptional activation assays.

[3] = target: ER-β ligand binding domain (LBD) (Homo sapiens (Human), UniProt Q92731); assay: ER-β competitive radioligand binding assay with [3H]E2; conditions: read-out: ER-β Ki
Chain of ER-β ligand binding domain (LBD) (Q92731 264-498, species assumed): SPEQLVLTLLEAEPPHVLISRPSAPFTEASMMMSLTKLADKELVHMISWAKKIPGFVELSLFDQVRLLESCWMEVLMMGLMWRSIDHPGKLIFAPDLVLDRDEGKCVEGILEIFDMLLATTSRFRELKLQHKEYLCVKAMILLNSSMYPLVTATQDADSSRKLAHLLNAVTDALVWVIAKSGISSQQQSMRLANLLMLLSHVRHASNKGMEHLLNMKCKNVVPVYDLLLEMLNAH
Protocol: Following incubation, plates were harvested with GF/B filters on the Unifilter-96 Harvester (PerkinElmer) and washed three times with ice-cold buffer B (50 mM Tris, pH 7.2). The filter plates were dried at room temperature, then 35 μl Microscint-O cocktail was added to each well and the filter plates were sealed with TopSeal-A. Radioactivity was counted in a TopCount® NXT Microplate Scintillation Counter using the settings for ^3H in Microscint cocktail (PerkinElmer).
E2 (determined by incubating with 10^−6 M unlabeled E2) and expressing it as a percentage of the specific binding in the absence of test compound.

[4] = target: retinoid X receptor (RXR-α) (Homo sapiens (Human), UniProt P19793); assay: Cross-reactivity transcriptional activation assay, RXR-α; type: cell-based; conditions: agonist and antagonist modes
Chain of retinoid X receptor (RXR-α) (P19793 whole entry): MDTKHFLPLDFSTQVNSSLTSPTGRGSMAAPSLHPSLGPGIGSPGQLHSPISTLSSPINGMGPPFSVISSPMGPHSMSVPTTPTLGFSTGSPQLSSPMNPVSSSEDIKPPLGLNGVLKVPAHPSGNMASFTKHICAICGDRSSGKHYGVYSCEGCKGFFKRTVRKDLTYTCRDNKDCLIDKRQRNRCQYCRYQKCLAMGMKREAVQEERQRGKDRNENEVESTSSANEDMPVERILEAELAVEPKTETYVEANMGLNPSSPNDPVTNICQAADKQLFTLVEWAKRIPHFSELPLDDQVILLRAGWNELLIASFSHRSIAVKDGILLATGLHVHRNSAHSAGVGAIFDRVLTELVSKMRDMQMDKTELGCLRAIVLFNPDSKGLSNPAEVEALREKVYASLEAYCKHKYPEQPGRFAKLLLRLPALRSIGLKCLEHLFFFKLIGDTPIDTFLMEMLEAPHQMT
From the text: as §1

[5] = Day 7, 100 mg/kg/day oral, Quantifiable concentrations only
[6] = Day 14, 1 mg/kg/day oral, Estimated final concentrations
[7] = Day 14, 1 mg/kg/day oral, Quantifiable concentrations only
[8] = Day 14, 10 mg/kg/day oral, Estimated final concentrations
[9] = Day 14, 10 mg/kg/day oral, Quantifiable concentrations only
[10] = Day 14, 100 mg/kg/day oral, Estimated final concentrations
[11] = Day 14, 100 mg/kg/day oral, Quantifiable concentrations only
[12] = Day 28, 1 mg/kg/day oral, Estimated final concentrations
[13] = Day 28, 1 mg/kg/day oral, Quantifiable concentrations only
[14] = Day 28, 10 mg/kg/day oral, Estimated final concentrations
[15] = Day 28, 10 mg/kg/day oral, Quantifiable concentrations only
[16] = Day 28, 100 mg/kg/day oral, Estimated final concentrations
[17] = Day 28, 100 mg/kg/day oral, Quantifiable concentrations only
[18] = Day 64, 1 mg/kg/day oral, Estimated final concentrations
[19] = Day 64, 1 mg/kg/day oral, Quantifiable concentrations only
[20] = Day 64, 10 mg/kg/day oral, Estimated final concentrations
[21] = Day 64, 10 mg/kg/day oral, Quantifiable concentrations only
[22] = Day 64, 100 mg/kg/day oral, Estimated final concentrations
[23] = Day 64, 100 mg/kg/day oral, Quantifiable concentrations only
[24] = Day 90, 1 mg/kg/day oral, Estimated final concentrations
[25] = Day 90, 1 mg/kg/day oral, Quantifiable concentrations only
[26] = Day 90, 10 mg/kg/day oral, Estimated final concentrations
[27] = Day 90, 10 mg/kg/day oral, Quantifiable concentrations only
[28] = Day 90, 100 mg/kg/day oral, Estimated final concentrations
[29] = Day 90, 100 mg/kg/day oral, Quantifiable concentrations only

SMILES: O=C(c1ccc(O)c(F)c1)N(c1ccc(O)cc1)c1ccc(F)cc1 [Compound IV, 3-fluoro-N-(4-fluorophenyl)-4-hydroxy-N-(4-hydroxyphenyl)benzamide]
- Mean serum testosterone level [1, 5]: 2.2 ng/mL
- Percentage change of mean testosterone levels compared to baseline [1, 5]: −51%
- Mean serum testosterone level [1, 6]: 3.8 ng/mL
- Percentage change of mean serum testosterone levels compared to baseline [1, 6]: −48%
- Mean serum testosterone level [1, 7]: 3.8 ng/mL
- Percentage change of mean testosterone levels compared to baseline [1, 7]: −48%
- Mean serum testosterone level [1, 8]: 7.1 ng/mL
- Percentage change of mean serum testosterone levels compared to baseline [1, 8]: 45%
- Mean serum testosterone level [1, 9]: 7.1 ng/mL
- Percentage change of mean testosterone levels compared to baseline [1, 9]: 45%
- suppression of serum testosterone relative to the baseline value ([1]; Day 14, 100 mg/kg/day oral): 42%
- Mean serum testosterone level [1, 10]: 2.6 ng/mL
- Percentage change of mean serum testosterone levels compared to baseline [1, 10]: −42%
- Mean serum testosterone level [1, 11]: 2.6 ng/mL
- Percentage change of mean testosterone levels compared to baseline [1, 11]: −42%
- Mean serum testosterone level [1, 12]: 4.7 ng/mL
- Percentage change of mean serum testosterone levels compared to baseline [1, 12]: −35%
- Mean serum testosterone level [1, 13]: 4.7 ng/mL
- Percentage change of mean testosterone levels compared to baseline [1, 13]: −35%
- Mean serum testosterone level [1, 14]: 9.4 ng/mL
- Percentage change of mean serum testosterone levels compared to baseline [1, 14]: 92%
- Mean serum testosterone level [1, 15]: 9.4 ng/mL
- Percentage change of mean testosterone levels compared to baseline [1, 15]: 92%
- suppression of serum testosterone relative to the baseline value ([1]; Day 28, 100 mg/kg/day oral): 79%
- Mean serum testosterone level [1, 16]: 0.9* ng/mL
- Percentage change of mean serum testosterone levels compared to baseline [1, 16]: −79%
- Mean serum testosterone level [1, 17]: 0.9 ng/mL
- Percentage change of mean testosterone levels compared to baseline [1, 17]: −79%
- Mean serum testosterone level [1, 18]: 4.3 ng/mL
- Percentage change of mean serum testosterone levels compared to baseline [1, 18]: −41%
- Mean serum testosterone level [1, 19]: 4.3 ng/mL
- Percentage change of mean testosterone levels compared to baseline [1, 19]: −41%
- Mean serum testosterone level [1, 20]: 5.4 ng/mL
- Percentage change of mean serum testosterone levels compared to baseline [1, 20]: 11%
- Mean serum testosterone level [1, 21]: 5.4 ng/mL
- Percentage change of mean testosterone levels compared to baseline [1, 21]: 11%
- suppression of serum testosterone relative to the baseline value ([1]; Day 64, 100 mg/kg/day oral): 92%
- Mean serum testosterone level [1, 22]: 0.3* ng/mL
- Percentage change of mean serum testosterone levels compared to baseline [1, 22]: −92%
- Mean serum testosterone level [1, 23]: 0.3 ng/mL
- Percentage change of mean testosterone levels compared to baseline [1, 23]: −92%
- Mean serum testosterone level [1, 24]: 4.2 ng/mL
- Percentage change of mean serum testosterone levels compared to baseline [1, 24]: −42%
- Mean serum testosterone level [1, 25]: 4.2 ng/mL
- Percentage change of mean testosterone levels compared to baseline [1, 25]: −42%
- Mean serum testosterone level [1, 26]: 4.6 ng/mL
- Percentage change of mean serum testosterone levels compared to baseline [1, 26]: −5.5%
- Mean serum testosterone level [1, 27]: 4.6 ng/mL
- Percentage change of mean testosterone levels compared to baseline [1, 27]: −5.5%
- Mean serum testosterone level [1, 28]: 0.2* ng/mL
- Percentage change of mean serum testosterone levels compared to baseline [1, 28]: −96%
- suppression of serum testosterone relative to the baseline value [1, 28]: 96%
- Mean serum testosterone level [1, 29]: 0.2 ng/mL
- Percentage change of mean testosterone levels compared to baseline [1, 29]: −95%
- monkeys with testosterone below the limit of quantification ([1]; after 90 days, 100 mg/kg/day oral, LLOQ 0.246 ng/mL): 6 of 10
- testosterone flare ([1]; any dose up to 100 mg/kg/day): not observed
- effects on platelet aggregation, prothrombin time (PT) or activated partial thromboplastin time (APTT) ([1]; cynomolgus monkey, in vivo): No apparent effects
- reduction of prostate volume ([1]; 10 mg/kg): 25%
- reduction of prostate volume ([1]; 100 mg/kg): 45%
- reduction of mean prostate weights ([1]; 10 mg/kg/day): 24%
- reduction of mean prostate weights ([1]; 100 mg/kg/day): 21%
- agonist or antagonist activity [2]: did not display any agonist or antagonist activity
- Ki [3]: 0.0152 ± 0.0041 µM
- agonist or antagonist activity [4]: did not display any agonist or antagonist activity
